From US20230391760A1, “HETEROCYCLIC GLP-1 AGONISTS” (Gasherbrum Bio, Inc., priority 2020, published 2023) come the findings set out here.

SMILES strings stand for the structures.

The target of this assay is GLP-1 Receptor (Homo sapiens, UniProt P43220). The assay can be described thus: GLP-1R agonist cAMP stimulation assay (HEK293/GLP1R/CRE-LUC cells, cAMP dynamic 2 Kit). It counts as cell-based. The settings on record: HEK293/CRE-Luc cell line stably expressing the GLP-1 Receptor, 30 min at 37° C. The gist of the method: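 HEK293 cells stably expressing human GLP-1R with CRE-luciferase, 1000 cells/well in DPBS with 0.5 mM IBMX and 0.1% BSA, treated with compound in 1/2-log serial dilution for 30 min at 37 °C. cAMP then detected by HTRF (cAMP-d2 plus anti-cAMP cryptate), 1 h at room temperature in the dark.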
GLP-1 Receptor, sequence (P43220 24-463, species assumed): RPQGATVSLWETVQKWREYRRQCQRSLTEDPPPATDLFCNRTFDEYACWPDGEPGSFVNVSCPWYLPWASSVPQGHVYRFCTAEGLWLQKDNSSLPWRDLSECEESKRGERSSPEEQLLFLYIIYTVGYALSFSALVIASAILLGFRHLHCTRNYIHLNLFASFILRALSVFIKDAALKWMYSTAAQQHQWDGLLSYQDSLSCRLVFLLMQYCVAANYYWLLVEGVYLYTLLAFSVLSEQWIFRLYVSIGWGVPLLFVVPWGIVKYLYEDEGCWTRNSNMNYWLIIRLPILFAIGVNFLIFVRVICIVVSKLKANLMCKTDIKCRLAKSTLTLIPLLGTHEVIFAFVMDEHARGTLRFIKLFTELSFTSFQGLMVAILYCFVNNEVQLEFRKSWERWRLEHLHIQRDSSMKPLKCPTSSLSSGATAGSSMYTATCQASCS
For orientation: EC50 means the concentration at which the effect is half-maximal. Read a high EC50 as lower potency in that assay. The compound `C[C@]1(c2ccc(Cl)cc2F)Oc2cccc(C3CCN(Cc4nc5cc(-c6noc(=O)[nH]6)ncc5n4CC4(C#N)CC4)CC3)c2O1` [Compound 346a, 1-{[2-({4-[(2S)-2-(4-chloro-2-fluorophenyl)-2-methyl-2H-1,3-benzodioxol-4-yl]piperidin-1-yl}methyl)-6-(5-oxo-4,5-dihydro-1,2,4-oxadiazol-3-yl)-3H-imidazo[4,5-c]pyridin-3-yl]methyl}cyclopropane-1-carbonitrile] came in with an EC50 of 0.015 nM.

`CC1(c2ccc(Cl)cc2)Oc2cccc(C3CCN(Cc4nc5cc(-c6noc(=O)[nH]6)ncc5n4C[C@@H]4CCO4)CC3)c2O1` (stereo partly drawn) [Compound 347a, 3-[2-({4-[2-(4-chlorophenyl)-2-methyl-2H-1,3-benzodioxol-4-yl]piperidin-1-yl}methyl)-3-{[(2S)-oxetan-2-yl]methyl}-3H-imidazo[4,5-c]pyridin-6-yl]-4,5-dihydro-1,2,4-oxadiazol-5-one] registered an EC50 of 0.022 nM.

Take `C[C@]1(c2ccc(Cl)cc2F)Oc2cccc(C3CCN(Cc4nc5cc(-c6noc(=O)[nH]6)nnc5n4C[C@@H]4CCO4)CC3)c2O1` [Compound 348a, 3-[6-({4-[(2S)-2-(4-chloro-2-fluorophenyl)-2-methyl-2H-1,3-benzodioxol-4-yl]piperidin-1-yl}methyl)-7-{[(2S)-oxetan-2-yl]methyl}-7H-imidazo[4,5-c]pyridazin-3-yl]-4,5-dihydro-1,2,4-oxadiazol-5-one]: the EC50 came to 0.062 nM.

`CCc1nnc(-c2cnc3c(c2)nc(CN2CCC(c4cccc5c4O[C@@](C)(c4ccc(Cl)cc4F)O5)CC2)n3C[C@@H]2CCO2)[nH]1` [Compound 352a, 4-[(2S)-2-(4-chloro-2-fluorophenyl)-2-methyl-2H-1,3-benzodioxol-4-yl]-1-{[6-(5-ethyl-4H-1,2,4-triazol-3-yl)-3-{[(2S)-oxetan-2-yl]methyl}-3H-imidazo[4,5-b]pyridin-2-yl]methyl}piperidine] gave an EC50 of 0.43 nM.

On to `CC1(c2ccc(C#N)cc2Cl)Oc2cccc(C3CCN(Cc4nc5cc(-c6nnc(C(F)(F)F)[nH]6)ccc5n4C[C@@H]4CCO4)CC3)c2O1` (stereo partly drawn) [Compound 353a, 3-chloro-4-(2-methyl-4-{1-[(1-{[(2S)-oxetan-2-yl]methyl}-5-[5-(trifluoromethyl)-4H-1,2,4-triazol-3-yl]-1H-1,3-benzodiazol-2-yl)methyl]piperidin-4-yl}-2H-1,3-benzodioxol-2-yl)benzonitrile], for which the EC50 came to 0.026 nM.

`CC1(c2ccc(C#N)cn2)Oc2cccc(C3CCN(Cc4nc5cc(-c6nnc(C(F)(F)F)[nH]6)ccc5n4C[C@@H]4CCO4)CC3)c2O1` (stereo partly drawn) [Compound 354a, 6-(2-methyl-4-{1-[(1-{[(2S)-oxetan-2-yl]methyl}-5-[5-(trifluoromethyl)-4H-1,2,4-triazol-3-yl]-1H-1,3-benzodiazol-2-yl)methyl]piperidin-4-yl}-2H-1,3-benzodioxol-2-yl)pyridine-3-carbonitrile] came in with an EC50 of 0.11 nM.

Regarding `CC1(c2ccc(Cl)cc2F)Oc2cccc(C3CCN(Cc4nc5cc(-c6n[nH]c(=O)[nH]6)ccc5n4C[C@@H]4CCO4)CC3)c2O1` (stereo partly drawn) [Compound 355a, 3-[2-({4-[2-(4-chloro-2-fluorophenyl)-2-methyl-2H-1,3-benzodioxol-4-yl]piperidin-1-yl}methyl)-1-{[(2S)-oxetan-2-yl]methyl}-1H-1,3-benzodiazol-5-yl]-4,5-dihydro-1H-1,2,4-triazol-5-one], a half-maximal response (EC50) required 7 nM.

On to `C[C@]1(c2ccc(Cl)cc2F)Oc2cccc(C3CCN(Cc4nc5cc(-c6nnc(C(F)(F)F)[nH]6)nnc5n4C[C@@H]4CCO4)CC3)c2O1` [Compound 359a, 4-[(2S)-2-(4-chloro-2-fluorophenyl)-2-methyl-2H-1,3-benzodioxol-4-yl]-1-[(7-{[(2S)-oxetan-2-yl]methyl}-3-[5-(trifluoromethyl)-4H-1,2,4-triazol-3-yl]-7H-imidazo[4,5-c]pyridazin-6-yl)methyl]piperidine], for which the EC50 stood at 0.014 nM.

The compound `C[C@]1(c2ccc(Cl)cc2F)Oc2cccc(C3CCN(Cc4nc5cc(-c6nnc(C(F)F)[nH]6)ncc5n4C[C@@H]4CCO4)CC3)c2O1` [Compound 360a, 4-[(2S)-2-(4-chloro-2-fluorophenyl)-2-methyl-2H-1,3-benzodioxol-4-yl]-1-({6-[5-(difluoromethyl)-4H-1,2,4-triazol-3-yl]-3-{[(2S)-oxetan-2-yl]methyl}-3H-imidazo[4,5-c]pyridin-2-yl}methyl)piperidine] registered an EC50 of 0.0092 nM.

Take `CC1(c2ccc(Cl)cc2)Oc2cccc(C3CCN(Cc4nc5cc(-c6nnc(C(F)(F)F)[nH]6)ncc5n4C[C@@H]4CCO4)CC3)c2O1` (stereo partly drawn) [Compound 361a, 4-[2-(4-chlorophenyl)-2-methyl-2H-1,3-benzodioxol-4-yl]-1-[(3-{[(2S)-oxetan-2-yl]methyl}-6-[5-(trifluoromethyl)-4H-1,2,4-triazol-3-yl]-3H-imidazo[4,5-c]pyridin-2-yl)methyl]piperidine]: a half-maximal response (EC50) required 0.034 nM.

Compound `C[C@]1(c2ccc(Cl)cc2F)Oc2cccc(C3CCN(Cc4nc5cc(-c6nnc(C(F)(F)F)[nH]6)ncc5n4C[C@@H]4CCO4)CC3)c2O1` [Compound 366a, 4-[(2S)-2-(4-chloro-2-fluorophenyl)-2-methyl-2H-1,3-benzodioxol-4-yl]-1-[(3-{[(2S)-oxetan-2-yl]methyl}-6-[5-(trifluoromethyl)-4H-1,2,4-triazol-3-yl]-3H-imidazo[4,5-c]pyridin-2-yl)methyl]piperidine] registered an EC50 of 0.012 nM.

Turning to `C[C@]1(c2ccc(Cl)cc2F)Oc2cccc(C3CCN(Cc4nc5cc(-c6noc(=O)[nH]6)ncc5n4C[C@@H]4CCO4)CC3)c2O1` [Compound 375a, 3-[2-({4-[(2S)-2-(4-chloro-2-fluorophenyl)-2-methyl-2H-1,3-benzodioxol-4-yl]piperidin-1-yl}methyl)-3-{[(2S)-oxetan-2-yl]methyl}-3H-imidazo[4,5-c]pyridin-6-yl]-4,5-dihydro-1,2,4-oxadiazol-5-one], the EC50 turned out to be 0.0063 nM.

For the compound `Fc1cc(Cl)ccc1COc1ncccc1C1=CCN(Cc2nc3cc(-c4nnc(C(F)(F)F)[nH]4)ccc3n2C[C@@H]2CCO2)CC1` [Compound 390a, 2-[(4-chloro-2-fluorophenyl)methoxy]-1′-[(1-{[(2S)-oxetan-2-yl]methyl}-5-[5-(trifluoromethyl)-4H-1,2,4-triazol-3-yl]-1H-1,3-benzodiazol-2-yl)methyl]-1′,2′,3′,6′-tetrahydro-3,4′-bipyridine], the response was half-maximal at 0.48 nM (EC50).

Consider `Fc1cc(Cl)ccc1COc1ncccc1C1CCN(Cc2nc3cc(-c4nnc(C(F)(F)F)[nH]4)ccc3n2C[C@@H]2CCO2)CC1` [Compound 393a, 2-[(4-{2-[(4-chloro-2-fluorophenyl)methoxy]pyridin-3-yl}piperidin-1-yl)methyl]-1-{[(2S)-oxetan-2-yl]methyl}-5-[5-(trifluoromethyl)-4H-1,2,4-triazol-3-yl]-1H-1,3-benzodiazole], for which the EC50 came out at 0.063 nM.

For `O=C(NC1CC1)c1ccc2c(c1)nc(CN1CCC(c3cccc(OCc4ccc(Cl)cc4F)n3)CC1)n2C[C@@H]1CCO1` [Compound 396a, 2-[(4-{6-[(4-chloro-2-fluorophenyl)methoxy]pyridin-2-yl}piperidin-1-yl)methyl]-N-cyclopropyl-1-{[(2S)-oxetan-2-yl]methyl}-1H-1,3-benzodiazole-5-carboxamide], the EC50 was found to be 3.2 nM.

As for `CO[C@H](C)Cn1c(CN2CCC(c3cccc4c3O[C@@](C)(c3ccc(Cl)cc3F)O4)CC2)nc2cc(-c3noc(=O)[nH]3)cnc21` [Compound 397a, 3-[2-({4-[(2S)-2-(4-chloro-2-fluorophenyl)-2-methyl-2H-1,3-benzodioxol-4-yl]piperidin-1-yl}methyl)-3-[(2R)-2-methoxypropyl]-3H-imidazo[4,5-b]pyridin-6-yl]-4,5-dihydro-1,2,4-oxadiazol-5-one], the EC50 worked out at 1.3 nM.

The compound `C[C@]1(c2ccc(Cl)cc2F)Oc2cccc(C3CCN(Cc4nc5cc(-c6noc(=O)[nH]6)cnc5n4C[C@@H]4CCOC4)CC3)c2O1` [Compound 398a, 3-[2-({4-[(2S)-2-(4-chloro-2-fluorophenyl)-2-methyl-2H-1,3-benzodioxol-4-yl]piperidin-1-yl}methyl)-3-{[(3S)-oxolan-3-yl]methyl}-3H-imidazo[4,5-b]pyridin-6-yl]-4,5-dihydro-1,2,4-oxadiazol-5-one] displayed an EC50 of 4.3 nM.

`CC1(c2ccc(Cl)cc2F)Oc2cccc(C3CCN(Cc4nc5cc(-c6noc(=O)[nH]6)cnc5n4C[C@H]4CCCO4)CC3)c2O1` (stereo partly drawn) [Compound 399a, 3-[2-({4-[2-(4-chloro-2-fluorophenyl)-2-methyl-2H-1,3-benzodioxol-4-yl]piperidin-1-yl}methyl)-3-{[(2R)-oxolan-2-yl]methyl}-3H-imidazo[4,5-b]pyridin-6-yl]-4,5-dihydro-1,2,4-oxadiazol-5-one]: a half-maximal effect (EC50) was put at 17 nM.

Consider `CC1(c2ccc(Cl)cc2F)Oc2cccc(C3CCN(Cc4nc5cc(-c6noc(=O)[nH]6)cnc5n4C[C@H]4CCOC4)CC3)c2O1` (stereo partly drawn) [Compound 400a, 3-[2-({4-[2-(4-chloro-2-fluorophenyl)-2-methyl-2H-1,3-benzodioxol-4-yl]piperidin-1-yl}methyl)-3-{[(3R)-oxolan-3-yl]methyl}-3H-imidazo[4,5-b]pyridin-6-yl]-4,5-dihydro-1,2,4-oxadiazol-5-one], for which the EC50 was 3.7 nM.

In turn, `CC1(c2ccc(Cl)cc2F)Oc2cccc(C3CCN(Cc4nc5cc(-c6nnc(C(F)(F)F)[nH]6)cnc5n4C[C@H]4CCOC4)CC3)c2O1` (stereo partly drawn) [Compound 401a, 4-[2-(4-chloro-2-fluorophenyl)-2-methyl-2H-1,3-benzodioxol-4-yl]-1-[(3-{[(3R)-oxolan-3-yl]methyl}-6-[5-(trifluoromethyl)-4H-1,2,4-triazol-3-yl]-3H-imidazo[4,5-b]pyridin-2-yl)methyl]piperidine] displayed a concentration giving a half-maximal response (EC50) of 0.6 nM.
